Test results: patent US20250057979A1, “CARDIAC CALCIUM HANDLING MACHINERY REMODELED IN FRIEDREICH'S ATAXIA” (University of South Florida, priority 2023, published 2025)

Columns and labels:
[1] = system: left ventricular myocytes from FXN-WT and FXN-KO; settings: 10 μM FCCP added after 15 min of time-dependent recording over 22 min; FXN-WT and FXN-KO cardiomyocytes
Description: The mitochondrial membrane potential (ΔΨm) was measured using tetramethyl rhodamine methyl ester (TMRM) dye. Left ventricular myocytes from the FXN-WT and FXN-KO were plated in an eight-well confocal chamber (LAB-TEK, DK, Denmark; Catalog #155409,) for 20 minutes, and cells were incubated with TMRM (10 nmol/L; Invitrogen; Catalog #T668) for 20 minutes in Tyrode solution at 37° C. and washed two times with Tyrode solution. After incubation with the dye, live cells were imaged for 20 min in 2 min intervals on a confocal microscope (Olympus-IX) using a 63X-oil objective. […] Confocal settings were identical for FXN-WT and the FXN-KO myocytes.

[2] = system: ventricular myocytes from FXN-KO and FXN-WT mice; experiment: Oxygen consumption rate (OCR), XFp24 Cell Mito Stress Test (Agilent Seahorse); type: cell-based, mouse; settings: isolated ventricular myocytes
Description: To investigate how mitochondrial respiration was affected in FA, OCR was measured herein using XFp24 Cell Mito Stress Test (Catalog #B05423; Agilent Seahorse). One day prior to the experiment, XFp24 cell culture plates were coated with gelatin/fibronectin at 37° C. Ventricular myocytes were enzymatically isolated from FXN-KO and FXN-WT mice. We dissociated myocytes in DMEM medium (Seahorse Bioscience), supplemented with 1 mM pyruvate, 2 mM glutamine, and 10 mM D-glucose. We plated 2500 myocytes/well into 24 well seahorse plates for 10 min. OCR were measured using the Seahorse Bioscience XF24 Extracellular Flux Analyzer (Seahorse Bioscience). Measurements were taken as the cells were incubated sequentially under four conditions: 1) basal levels were measured with no additives; 2) oligomycin (1.5 μM) was added to inhibit ATP synthase and OXPHOS, showing glycolysis alone reversibly; 3) FCCP (1 μM), a mitochondrial uncoupler, was added to induce maximal respiration; and 4) Antimycin A (10 μM), a Complex III inhibitor, was added to obtain non-mitochondrial oxygen consumption background. The Seahorse software was used to extract the results and plotted them using GraphPad Prism. OCR was normalized to cell number per well.

N#CC(C#N)=NNc1ccc(OC(F)(F)F)cc1 [FCCP, carbonyl cyanide 4-(trifluoromethoxy) phenylhydrazone]
ΔΨm (TMRM fluorescence) after addition of FCCP [1]: decreased
OCR after injection of FCCP ([2]; FCCP 1 μM): increased OCR to maximal levels

CC[C@H]1/C=C/C=C/C[C@@H](C)[C@H](O)[C@@](C)(O)C(=O)[C@@H](C)[C@H](O)[C@@H](C)C(=O)[C@@H](C)[C@H](O)[C@@H](C)/C=C/C(=O)O[C@@H]2[C@H](C)[C@H](CC1)O[C@]1(CC[C@H](C)[C@H](C[C@@H](C)O)O1)[C@H]2C [Oligomycin, oligomycin]
OCR after injection of oligomycin ([2]; oligomycin 1.5 μM): decreased

Antimycin A
OCR after injection of antimycin A ([2]; Antimycin A 10 μM): reduced
